{"source": "patent US20260265267A1", "about": "“NOVEL COMPOUNDS WITH MTORC2-INHIBITORY ACTIVITY AND USES THEREOF” (Aliad Biopharma, priority 2023, published 2026)", "key": {"[1]": {"test_system": "5×FAD Alzheimer's disease model mice", "experiment": "Morris water maze test in 5×FAD mice (spatial perceptive ability)", "assay_type": "in vivo", "details": "5 mg/kg", "experimental": "(§1) In order to evaluate the efficacy of HN2210, HN2213, and HN2313 on Alzheimer's disease-related symptoms, specifically regarding 1) memory and cognitive impairment, 2) amyloid plaques, 3) neurofibrillary tangles (NFTs), and 4) brain inflammation, an in vivo efficacy assessment of HN2210, HN2213 and HN2313 was conducted using 5×FAD Alzheimer's disease model mice. The 5×FAD mice were purchased from Jackson Lab, USA (Cat #034840-JAX) and crossed once with C57bl6 mice to produce F1 heterozygous offspring (Het). The compound was administered via intraperitoneal injection to 6-month-old 5×FAD Het mice, followed by behavioral testing. The normal control mice, which were littermates of the 5×FAD Het mice, were aged to 6 months and received DMSO injection at the same volume.\nSpecifically, a 50 cm deep water tank filled with water (25.0±1.0° C.) was divided into four equal quadrants, and a platform (12 cm diameter) was placed 3 mm below the water surface in the center of one quadrant. The training test consisted of a 1-minute free swimming practice without the platform foothold on the first day and a four days of training, during which the animal used environmental cues to locate the hidden platform foothold, with four trials per day. The following day, the platform was removed, and the time the experimental animal spent in the target quadrant was measured (probe trial). Videos were recorded and analyzed using the Ethovision video tracking system (Noldus Information Technology, Wageningen, Netherlands). The data included the time spent swimming in the target quadrant and the number of crossings over the virtual platform's previous position."}, "[2]": {"test_system": "tau aggregates in the brain of 5×FAD mice", "experiment": "Tau aggregate removal in the brain of 5×FAD mice (AT8 antibody staining)", "assay_type": "in vivo", "details": "5 mg/kg, 14 days", "experimental": "as §1\nIn order to assess the neurofibrillary tangle removal effect of HN2210, HN2213, and HN2313 compounds in the brains of Alzheimer's disease model mice, the following test was conducted using 5×FAD-DMSO mice without compound treatment, 5×FAD mice treated with HN2210, HN2213, or HN2313 compounds, and normal mice as controls.\nSpecifically, AT8 antibody stains hyperphosphorylated Tau protein that constitutes tau aggregates. Therefore, tau aggregates formed in the hippocampus of 5×FAD mouse can be measured using immunostaining with the AT8 antibody. Brain slices were triple-stained with the AT8 antibody, MAP2 which is a neuronal marker, and DAPI to label nuclei, and the dentate gyrus region of the hippocampus was observed under a confocal scanning microscope."}, "mTORC1": {"test_system": "mTORC1", "experiment": "mTORC1 inhibitory activity in primary cultured cerebral neurons (S6K Thr389 phosphorylation)", "assay_type": "cell-based, SD mice"}, "[3]": {"test_system": "activated microglia in the brain of 5×FAD mice", "experiment": "Anti-inflammatory effect in the brain of 5×FAD mice (IBA-1 antibody staining)", "assay_type": "in vivo", "details": "5 mg/kg, 14 days", "experimental": "as §1\nIn order to assess the anti-inflammatory effect of HN2210, HN2213, and HN2313 compounds in the brains of Alzheimer's disease model mice, the following test was conducted using 5×FAD-DMSO mice without compound treatment, 5×FAD mice treated with HN2210, HN2213, or HN2313 compounds, and normal mice as controls. Specifically, brain inflammation is mediated by the activation of microglia, which can be stained using the IBA-1 antibody. Therefore, inflammation in the hippocampus of 5×FAD mouse can be assessed using immunostaining with the IBA-1 antibody. Brain slices were double-stained with the IBA-1 antibody and DAPI to label nuclei, and the dentate gyrus region of the hippocampus was observed under a confocal scanning microscope."}, "[4]": {"test_system": "5×FAD Alzheimer's disease model mice", "experiment": "Y-maze test in 5×FAD mice (short-term memory)", "assay_type": "in vivo", "details": "5 mg/kg, intraperitoneal, once daily, 14 days (FIG. 5)", "experimental": "as §1\nSpecifically, the Y-maze test was performed using a Y-shaped structure maze made of black acrylic with each arm at a […], and light and a camera were installed on the ceiling, and we measured the number of entries for white mice to freely enter each arm while the surroundings were covered with a curtain. This procedure was used to analyze short-term memory. In order to adapt mice to the environment, they were acclimated to the experimental space for 30 minutes. The mice were placed at one end of the maze and allowed to move freely for 12 minutes. The test was conducted with observation periods divided into 8, 10, and 12 minutes. When all four paws of a mice entered an arm, it was considered as fully entered, and the number of entries into each arm without repetition was recorded. The number of entries into each of the three different arms was divided by the total number of entries into all arms minus 2, and expressed as a percentage."}, "[5]": {"test_system": "5×FAD Alzheimer's disease model mice", "experiment": "Passive avoidance test in 5×FAD mice (long-term memory)", "assay_type": "in vivo", "details": "5 mg/kg", "experimental": "as §1\nSpecifically, to mice trained to avoid bright light three times daily, an electric foot shock (1 mA, 300 g) was applied for 3 seconds in a dark room at the same time on the next day. After 24 hours, the mice were placed again in the same room, and the avoidance response by light, that is, the time taken to move from the bright room to the dark room was measured. At 24 hours after habituation training, the mice were placed back into the bright room, and the latency time for entering the dark room was recorded over a period of 720 seconds."}, "mTORC2": {"test_system": "mTORC2", "experiment": "mTORC2 inhibitory activity in primary cultured cerebral neurons (Akt Ser473 phosphorylation)", "assay_type": "cell-based, SD mice", "experimental": "Specifically, primary neural cells were cultured from the cerebral cortex of E16 embryos of SD mice with a gestational age 16-day (Orient Bio). The extracted brain was separated into the left and right hemispheres, the meninges were removed, and the brains were treated with trypsin in Ca^2+/Mg^2+-free HBSS solution.\nThe time-dependent changes in Akt Ser473 phosphorylation, Akt Thr308 phosphorylation, and LC3-II levels were measured by Western blot analysis."}}}
{"compound": "O=C1c2cc(F)c(NC3CCCC3)cc2COc2cc3c(cc21)OCO3", "note": "[HN2313, 8-(cyclopentylamino)-9-fluoro-[1,3]dioxolo[4′,5′:4,5]benzo[1,2-b]benzo[e]oxepin-11(6H)-one]", "values": [{"measurement": "Morris water maze number of target crossings, % of the normal control level", "setting": "[1]; 14 days (FIG. 6a)", "value": "~82", "unit": "%"}, {"measurement": "Morris water maze number of target crossings, increase compared to 5×FAD-DMSO mice", "setting": "[1]; 14 days (FIG. 6a)", "value": 5.5, "unit": "fold"}, {"measurement": "Morris water maze time spent in the target quadrant, % of the normal control level", "setting": "[1]; 14 days (FIG. 6b)", "value": "~84", "unit": "%"}, {"measurement": "Morris water maze time spent in the target quadrant, increase compared to 5×FAD-DMSO mice", "setting": "[1]; 14 days (FIG. 6b)", "value": 1.53, "unit": "fold"}, {"measurement": "reduction of AT8 antibody signals in the dentate gyrus compared to the 5×FAD-DMSO group", "setting": "[2]", "value": 49, "unit": "%"}, {"measurement": "pThr389-S6K/S6K (% control)", "setting": "mTORC1; 100 nM, 24 hours", "value": 141, "unit": "% control"}, {"measurement": "increase in S6K Thr389 phosphorylation from 1 to 6 hours", "setting": "mTORC1; from 1 to 6 hours", "value": "2~3 fold"}, {"measurement": "reduction of IBA-1 antibody signals in the dentate gyrus compared to the 5×FAD-DMSO group", "setting": "[3]", "value": 50, "unit": "%"}, {"measurement": "Y-maze % alternation, % of the normal control level", "setting": "[4]", "value": 90, "unit": "%"}, {"measurement": "Y-maze % alternation, increase compared to 5×FAD-DMSO mice", "setting": "[4]", "value": 1.2, "unit": "fold"}, {"measurement": "passive avoidance latency time, increase compared to 5×FAD-DMSO mice", "setting": "[5]; 14 days (FIG. 7)", "value": 5.86, "unit": "fold"}, {"measurement": "passive avoidance latency time, % of the normal control level", "setting": "[5]; 14 days / 2 weeks (FIG. 7)", "value": "~96", "unit": "%"}, {"measurement": "selectivity for mTORC2 over mTORC1", "setting": "mTORC2", "value": "selective mTORC2 inhibitors"}, {"measurement": "pSer473-AKT/AKT (% control)", "setting": "mTORC2; 100 nM, 24 hours", "value": 34, "unit": "% control"}, {"measurement": "effect on Akt Ser473 phosphorylation", "setting": "mTORC2; 500 nM or 100 nM, 24 hours", "value": "reduce Akt Ser473 phosphorylation"}, {"measurement": "decrease in AKT Ser473 phosphorylation at 24 hours", "setting": "mTORC2; 500 nM or 100 nM, at 24 hours", "value": 66, "unit": "%"}, {"measurement": "AKT Ser473 phosphorylation from 1 to 12 hours", "setting": "mTORC2; from 1 to 12 hours", "value": "increased AKT Ser473 phosphorylation significantly"}]}
